Source: patent publication EP2271935B1, “METHOD AND KIT FOR THE EX VIVO EVALUATION OF THE RESPONSE OF A TUMOR TO CONDITIONS TO BE TESTED” (Universität Leipzig, priority 2008, dated 2009)
pIC50: −log10 of the molar value. Where two headings read alike, the source gives them in different places.

System: epithelial cell line KB (DSMZ ACC 136)
Experiment: MTT assay of proliferation under varied riboflavin content and light exposure
Type: cell-based, human
Source text: To address this question, three media, a) the RPMI 1640 without riboflavin and phenol red that is used in the method according to the invention and was manufactured according to our specifications by Biochrom, as well as two different RPMI 1640 charges purchased from Invitrogen which were each containing 532 nmol/L riboflavin, b) a phenol red-free (Gibco 11835), and c) a conventional RPMI 1640 (Gibco 21875) with 13.284 µmol/L phenol red. All media were supplemented with 2 mmol/L L-alanyl-1-glutamine as stabilized glutamine source (Biochrom K0302 Lot 0755 S) and the same amount of 10% (v/v) of heat-inactivated fetal calf serum (FCS) that was purchased from Invitrogen (Lot 41Q7554K) with a yield of 198 nmol/L riboflavin. […] These medium concentrations define the riboflavin concentrations in controls (see below).
In addition to the influences exerted by the different types of media alone, the riboflavin-dependent impact on the outcome of the docetaxel treatment was investigated. For this purpose 100 µl/well of docetaxel dilutions containing threefold the concentration indicated were added into the wells of microwell plates. The following seven docetaxel concentrations were tested: 19.38, 38.75, 77.5, 155, 310, 620, and 1,240 pmol/L.
To examine photoactivation-dependent riboflavin-mediated effects disturbing the outcome of ex-vivo chemoresponse-evaluation by conventional cell culture medium, and in particular in the absence of flavin-protecting experimental conditions, varying amounts of riboflavin were added. A stock solution of 200 µM (-)-riboflavin (CAS 83-68-5, Sigma R9504, FW=376.37 g/mol, purity >99%, cell culture tested) in phosphate buffered saline was diluted to adjust in each case the highest final concentration in culture (this means: after completion of the assay by addition of the other two components to the final assay volume of 300 µL) to exactly 10 µmol/L. Serial log10-dilutions were made from this concentration in each corresponding medium. These gave final concentrations in cell culture of 10.000, 1.018, 0.12, and 0.03 µmol/L in the case of medium a) (the medium according to the method of the invention), and concentrations of 10.000, 1.449, 0.594, and 0.508 µmol/L using media b) and c).
In general, each combination of riboflavin and docetaxel were tested in duplicate, and controls without additional riboflavin in quadruplicate for each experimental setting in the same 96-well plate. The experimental conditions were as follows: For each of the used media, two different plates were prepared simultaneously and either handled completely under flavin-protecting conditions (illumination only by sodium discharge lamps with an emission wavelength of 589 nm [i]), or in the same bench (Thermo MSC 12) with the installed light inside their working chamber switched on. The dilution of docetaxel and those of riboflavin in the particular medium were prepared for all four plates of each medium type prior to the other working steps under flavin-protecting conditions. Thus the administrations of these dilutions took about 20 min either under flavin-protecting conditions or illuminated conditions. After completed preparation of the plates that thereafter contained 200 µL of both diluted compounds, the plates were incubated 2 h in the incubator to allow for adjustment of the appropriate pH.
In between the stock culture of KB was harvested by trypsination of a 3-days stock culture (exponential growth phase). Stock cultures of KB cells always were grown without any antibiotic or antimycotic in phenol red- and riboflavin-free RPMI 1640 supplemented with 10% (v/v) FCS and were adapted to this medium for more than five passages. They were always handled at room temperature or warmer and were never exposed to light other than the light of a sodium discharge lamp with an emission wavelength of 589 nm for at least five passages. […]

[1] = medium a) (plate 01), 10 µmol/L riboflavin

## CC(=O)O[C@@]12CO[C@@H]1C[C@H](O)[C@@]1(C)C(=O)[C@H](O)C3=C(C)[C@@H](OC(=O)[C@H](O)[C@@H](NC(=O)OC(C)(C)C)c4ccccc4)C[C@@](O)([C@@H](OC(=O)c4ccccc4)[C@H]21)C3(C)C [docetaxel]
Homo sapiens, Epithelial cell, 0.5 h, Plate No. 11; Riboflavin 499 nmol/L; medium c), bench lighting <30 min, read-out: IC50 for docetaxel normalized to medium control of medium with same riboflavin content
  pIC50: 10.00
Homo sapiens, Epithelial cell, 0.5 h, Plate No. 11; Riboflavin 508 nmol/L; medium c) conventional RPMI 1640 with phenol red, bench lighting <30 min, read-out: IC50 for docetaxel with reference to control with same riboflavin content
  pIC50: 9.55
Homo sapiens, Epithelial cell, 0.5 h, Plate No. 11; Riboflavin 508 nmol/L; medium c), bench lighting <30 min, read-out: IC50 for docetaxel normalized to medium control of medium with same riboflavin content
  pIC50: 9.90
Homo sapiens, Epithelial cell, 0.5 h, Plate No. 11; Riboflavin 594 nmol/L; medium c) conventional RPMI 1640 with phenol red, bench lighting <30 min, read-out: IC50 for docetaxel with reference to control with same riboflavin content
  pIC50: 9.63
Homo sapiens, Epithelial cell, 0.5 h, Plate No. 11; Riboflavin 594 nmol/L; medium c), bench lighting <30 min, read-out: IC50 for docetaxel normalized to medium control of medium with same riboflavin content
  pIC50: 9.99
Homo sapiens, Epithelial cell, 0.5 h, Plate No. 11; Riboflavin 1449 nmol/L; medium c) conventional RPMI 1640 with phenol red, bench lighting <30 min, read-out: IC50 for docetaxel with reference to control with same riboflavin content
  pIC50: 9.56
Homo sapiens, Epithelial cell, 0.5 h, Plate No. 11; Riboflavin 1449 nmol/L; medium c), bench lighting <30 min, read-out: IC50 for docetaxel normalized to medium control of medium with same riboflavin content
  pIC50: 9.91
Homo sapiens, Epithelial cell, 0.5 h, Plate No. 11; Riboflavin 10000 nmol/L; medium c) conventional RPMI 1640 with phenol red, bench lighting <30 min, read-out: IC50 for docetaxel with reference to control with same riboflavin content
  pIC50: 9.61
Homo sapiens, Epithelial cell, 0.5 h, Plate No. 11; Riboflavin 10000 nmol/L; medium c), bench lighting <30 min, read-out: IC50 for docetaxel normalized to medium control of medium with same riboflavin content
  pIC50: 9.96
Homo sapiens, Epithelial cell, 0.5 h, Plate No. 12; Riboflavin 499 nmol/L; medium c) conventional RPMI 1640 with phenol red, bench lighting <30 min, daylight 30 min, read-out: IC50 for docetaxel with reference to control with same riboflavin content
  pIC50: 9.47
Homo sapiens, Epithelial cell, 0.5 h, Plate No. 12; Riboflavin 499 nmol/L; medium c), bench lighting <30 min, daylight 30 min, read-out: IC50 for docetaxel normalized to medium control of medium with same riboflavin content
  pIC50: 10.00
Homo sapiens, Epithelial cell, 0.5 h, Plate No. 12; Riboflavin 508 nmol/L; medium c) conventional RPMI 1640 with phenol red, bench lighting <30 min, daylight 30 min, read-out: IC50 for docetaxel with reference to control with same riboflavin content
  pIC50: 9.62
Homo sapiens, Epithelial cell, 0.5 h, Plate No. 12; Riboflavin 508 nmol/L; medium c), bench lighting <30 min, daylight 30 min, read-out: IC50 for docetaxel normalized to medium control of medium with same riboflavin content
  pIC50: 10.15
Homo sapiens, Epithelial cell, 0.5 h, Plate No. 12; Riboflavin 594 nmol/L; medium c) conventional RPMI 1640 with phenol red, bench lighting <30 min, daylight 30 min, read-out: IC50 for docetaxel with reference to control with same riboflavin content
  pIC50: 9.70
Homo sapiens, Epithelial cell, 0.5 h, Plate No. 12; Riboflavin 594 nmol/L; medium c), bench lighting <30 min, daylight 30 min, read-out: IC50 for docetaxel normalized to medium control of medium with same riboflavin content
  pIC50: 10.23
Homo sapiens, Epithelial cell, 0.5 h, Plate No. 12; Riboflavin 1449 nmol/L; medium c) conventional RPMI 1640 with phenol red, bench lighting <30 min, daylight 30 min, read-out: IC50 for docetaxel with reference to control with same riboflavin content
  pIC50: 9.82
Homo sapiens, Epithelial cell, 0.5 h, Plate No. 12; Riboflavin 1449 nmol/L; medium c), bench lighting <30 min, daylight 30 min, read-out: IC50 for docetaxel normalized to medium control of medium with same riboflavin content
  pIC50: 10.35
Homo sapiens, Epithelial cell, Plate No. 01; Riboflavin 20 nmol/L; medium a) RPMI 1640 without riboflavin and phenol red, flavin-protecting conditions, read-out: IC50 for docetaxel with reference to control with same riboflavin content
  pIC50: 9.68
Homo sapiens, Epithelial cell, Plate No. 01; Riboflavin 20 nmol/L; medium a), flavin-protecting conditions, read-out: IC50 for docetaxel normalized to medium control of medium with same riboflavin content
  pIC50: 10.00
Homo sapiens, Epithelial cell, Plate No. 01; Riboflavin 30 nmol/L; medium a) RPMI 1640 without riboflavin and phenol red, flavin-protecting conditions, read-out: IC50 for docetaxel with reference to control with same riboflavin content
  pIC50: 9.69
Homo sapiens, Epithelial cell, Plate No. 01; Riboflavin 30 nmol/L; medium a), flavin-protecting conditions, read-out: IC50 for docetaxel normalized to medium control of medium with same riboflavin content
  pIC50: 10.01
Homo sapiens, Epithelial cell, Plate No. 01; Riboflavin 120 nmol/L; medium a) RPMI 1640 without riboflavin and phenol red, flavin-protecting conditions, read-out: IC50 for docetaxel with reference to control with same riboflavin content
  pIC50: 9.64
Homo sapiens, Epithelial cell, Plate No. 01; Riboflavin 120 nmol/L; medium a), flavin-protecting conditions, read-out: IC50 for docetaxel normalized to medium control of medium with same riboflavin content
  pIC50: 9.96
Homo sapiens, Epithelial cell, Plate No. 01; Riboflavin 1018 nmol/L; medium a) RPMI 1640 without riboflavin and phenol red, flavin-protecting conditions, read-out: IC50 for docetaxel with reference to control with same riboflavin content
  pIC50: 9.65
Homo sapiens, Epithelial cell, Plate No. 01; Riboflavin 1018 nmol/L; medium a), flavin-protecting conditions, read-out: IC50 for docetaxel normalized to medium control of medium with same riboflavin content
  pIC50: 9.97
Homo sapiens, Epithelial cell, Plate No. 01; Riboflavin 10000 nmol/L; medium a) RPMI 1640 without riboflavin and phenol red, flavin-protecting conditions, read-out: IC50 for docetaxel with reference to control with same riboflavin content
  pIC50: 9.59
Homo sapiens, Epithelial cell, Plate No. 01; Riboflavin 10000 nmol/L; medium a), flavin-protecting conditions, read-out: IC50 for docetaxel normalized to medium control of medium with same riboflavin content
  pIC50: 9.91
Homo sapiens, Epithelial cell, Plate No. 05; Riboflavin 499 nmol/L; medium b) phenol red-free RPMI 1640, flavin-protecting conditions, read-out: IC50 for docetaxel with reference to control with same riboflavin content
  pIC50: 9.69
Homo sapiens, Epithelial cell, Plate No. 05; Riboflavin 499 nmol/L; medium b), flavin-protecting conditions, read-out: IC50 for docetaxel normalized to medium control of medium with same riboflavin content
  pIC50: 10.00
Homo sapiens, Epithelial cell, Plate No. 05; Riboflavin 508 nmol/L; medium b) phenol red-free RPMI 1640, flavin-protecting conditions, read-out: IC50 for docetaxel with reference to control with same riboflavin content
  pIC50: 9.74
Homo sapiens, Epithelial cell, Plate No. 05; Riboflavin 508 nmol/L; medium b), flavin-protecting conditions, read-out: IC50 for docetaxel normalized to medium control of medium with same riboflavin content
  pIC50: 10.06
Homo sapiens, Epithelial cell, Plate No. 05; Riboflavin 594 nmol/L; medium b) phenol red-free RPMI 1640, flavin-protecting conditions, read-out: IC50 for docetaxel with reference to control with same riboflavin content
  pIC50: 9.71
Homo sapiens, Epithelial cell, Plate No. 05; Riboflavin 594 nmol/L; medium b), flavin-protecting conditions, read-out: IC50 for docetaxel normalized to medium control of medium with same riboflavin content
  pIC50: 10.02
Homo sapiens, Epithelial cell, Plate No. 05; Riboflavin 1449 nmol/L; medium b) phenol red-free RPMI 1640, flavin-protecting conditions, read-out: IC50 for docetaxel with reference to control with same riboflavin content
  pIC50: 9.71
Homo sapiens, Epithelial cell, Plate No. 05; Riboflavin 1449 nmol/L; medium b), flavin-protecting conditions, read-out: IC50 for docetaxel normalized to medium control of medium with same riboflavin content
  pIC50: 10.02
Homo sapiens, Epithelial cell, Plate No. 05; Riboflavin 10000 nmol/L; medium b) phenol red-free RPMI 1640, flavin-protecting conditions, read-out: IC50 for docetaxel with reference to control with same riboflavin content
  pIC50: 9.62
Homo sapiens, Epithelial cell, Plate No. 05; Riboflavin 10000 nmol/L; medium b), flavin-protecting conditions, read-out: IC50 for docetaxel normalized to medium control of medium with same riboflavin content
  pIC50: 9.94
Homo sapiens, Epithelial cell, Plate No. 09; Riboflavin 499 nmol/L; medium c) conventional RPMI 1640 with phenol red, flavin-protecting conditions, read-out: IC50 for docetaxel with reference to control with same riboflavin content
  pIC50: 9.63
Homo sapiens, Epithelial cell, Plate No. 09; Riboflavin 499 nmol/L; medium c), flavin-protecting conditions, read-out: IC50 for docetaxel normalized to medium control of medium with same riboflavin content
  pIC50: 10.00
Homo sapiens, Epithelial cell, Plate No. 09; Riboflavin 508 nmol/L; medium c) conventional RPMI 1640 with phenol red, flavin-protecting conditions, read-out: IC50 for docetaxel with reference to control with same riboflavin content
  pIC50: 9.72
Homo sapiens, Epithelial cell, Plate No. 09; Riboflavin 508 nmol/L; medium c), flavin-protecting conditions, read-out: IC50 for docetaxel normalized to medium control of medium with same riboflavin content
  pIC50: 10.09
Homo sapiens, Epithelial cell, Plate No. 09; Riboflavin 594 nmol/L; medium c) conventional RPMI 1640 with phenol red, flavin-protecting conditions, read-out: IC50 for docetaxel with reference to control with same riboflavin content
  pIC50: 9.70
Homo sapiens, Epithelial cell, Plate No. 09; Riboflavin 594 nmol/L; medium c), flavin-protecting conditions, read-out: IC50 for docetaxel normalized to medium control of medium with same riboflavin content
  pIC50: 10.06
Homo sapiens, Epithelial cell, Plate No. 09; Riboflavin 1449 nmol/L; medium c) conventional RPMI 1640 with phenol red, flavin-protecting conditions, read-out: IC50 for docetaxel with reference to control with same riboflavin content
  pIC50: 9.55
Homo sapiens, Epithelial cell, Plate No. 09; Riboflavin 1449 nmol/L; medium c), flavin-protecting conditions, read-out: IC50 for docetaxel normalized to medium control of medium with same riboflavin content
  pIC50: 9.91
Homo sapiens, Epithelial cell, Plate No. 09; Riboflavin 10000 nmol/L; medium c) conventional RPMI 1640 with phenol red, flavin-protecting conditions, read-out: IC50 for docetaxel with reference to control with same riboflavin content
  pIC50: 9.40
Homo sapiens, Epithelial cell, Plate No. 09; Riboflavin 10000 nmol/L; medium c), flavin-protecting conditions, read-out: IC50 for docetaxel normalized to medium control of medium with same riboflavin content
  pIC50: 9.77
Homo sapiens, Epithelial cell, medium a) (plate 01), 10 µmol/L riboflavin, flavin-protecting conditions, read-out: IC50 relating to medium control
  pIC50: 9.65
Homo sapiens, Epithelial cell, medium a) (plate 01), 10 µmol/L riboflavin, flavin-protecting conditions, read-out: IC50 with reference to individual control
  pIC50: 9.59
Homo sapiens, Epithelial cell, plates 01, 05, 09 handled completely under flavin-protecting conditions, three types of RPMI 1640, read-out: IC50 values for docetaxel
  pIC50: ~9.70
[1]
  IC50 as % of the IC50 at 20 nmol/L riboflavin, relating to medium control: 107%
  IC50 as % of the IC50 detected in a) at 20 nmol/L riboflavin, individual control: 128%
